Assay [1] has as its system Antikörperbildung gegen Schafserythrozyten (Plaquebildende Milzzellen). The assay is described as follows: Antibody formation against sheep erythrocytes (JERNE plaque test, IgM plaque-forming spleen cells) in X-irradiated, bone-marrow-transplanted mice. The assay is classed as in vivo, AB/Bln.-Mäuse. The source says: (§1) Zum Nachweis der immunologischen Wirkungen wurden folgende Modelle verwendet: - "Kolonien - Bildung" ("Kolonien" - Bildungstest ) durch menschliche Knochenmarkzellen nach Kultivierung der Zellen mit dem menschlichen Granulocyten - Makrophagen - "Kolonien" - stimulierenden Faktor (hGM-CSF) und Spleninderivaten. - die Antikörperbildung gegen Schafserythrozyten ( Plaquebildende Milzzellen ) durch Ab/Bln.-Mäuse nach Röntgenbestrahlung (Tabelle 2).
Es wurden drei Monate alte AB/Bln.-Mäuse einmalig mit 800 cGy röntgenbestrahlt. Danach wurden die Tiere in drei Gruppen aufgeteilt und folgendermaßen weiterbehandelt: • Gruppe 1: Nach der Bestrahlung wurde den Tieren Knochenmarkzellen von Tieren des gleichen Inzuchtstammes transplantiert (Injektion von je 5 mal 10⁶ Knochenmarkzellen pro Tier). […] In differenten Zeitabständen nach der Bestrahlung und während der DAc-hSP5-Behandlung wurde mittels des JERNE-Plaque-Testes die Fähigkeit der Tiere untersucht, Antikörper zu bilden. • Gruppe 2: Gleiche Behandlung der Tiere wie in Gruppe 1, jedoch keine Therapie der Tiere mit DAc-hSP5. • Gruppe 3: Alleinige Röntgenbestrahlung der Tiere; keine Transplantation syngener Knochenmarkzellen, keine Therapie der Tiere mit DAc-hSP5.
Fünf Tage vor der Bestimmung der IgM Plaque-bildenden Milzzellen (Tage, angegeben in Tabelle 2) wurden die Tiere mit 5 x 10⁸ Schafserythrozyten immunisiert (intaperitoneale Applikation). Methodik: Eckert et.al., Biomed. Biochem. Acta, 1985, (44), 1239.

In assay [2] the test system is menschliche Knochenmarkzellen. The assay is described as follows: Colony formation test: human bone marrow cells cultured with hGM-CSF and splenin derivatives. The assay is classed as cell-based. The conditions noted are these: human bone marrow cells with hGM-CSF; Tab.1, Nr.6.
Text: as §1
Stimulierung des Wachstums und der Reifung von Knochenmarkstammzellen (in vitro)
Die Anzahl der gebildeten "Kolonien" ist dabei ein Maß für die mitotische bzw. differenzierende Wirkung der Faktoren auf die Knochenmarkzellen. Da Thymopentin in diesem Testsystem (Tab.1, Nr.6) keine Wirkung zeigte, ist anzunehmen, daß die immunstimulierende Wirkung von Timunox nicht über eine Wirkung auf Stammzellen des Knochenmarks zustande kommt.

This is an account of results in EP0410372A1, “Process for preparing human splenin derivatives” (BERLIN-CHEMIE AG, priority 1989, dated 1991).

For the substance “(N^α-Acetyl)-arginyl-(N^ε-acetyl)-lysylalanylvalyltyrosin [DAc-hSP5]”, the “Effekt auf die Antikörperbildung” value was “nicht wirksam” in assay [1] (1 µg per animal i.p. three times weekly); “nicht wirksam” in assay [1] (2 µg per animal i.p. three times weekly); “nicht wirksam” in assay [1] (4 µg per animal i.p. three times weekly); “suboptimal” in assay [1] (8 µg per animal i.p. three times weekly); “optimalen Effekt” in assay [1] (10 ug per animal i.p. three times weekly); “Effekt wie nach der von 10 ug” in assay [1] (20 µg per animal i.p. three times weekly). The “Effekt auf die Antikörperbildung” value in assay [1] (50 µg per animal i.p. three times weekly) is on record as “Effekt wie nach der von 10 ug”. Besides, the “Antikörperbildung (IgM Plaque-bildende Milzzellen)” value in assay [1] (800 cGy, syngeneic bone marrow transplant, 10 µg per animal i.p. three times weekly, Tabelle 2) is given as “beschleunigt zu einer normalen Antikörperbildung befähigt”.

Take Thymopentin: in assay [2], the “Wirkung im "Kolonien"-Bildungstest (Anzahl der gebildeten "Kolonien")” value was “keine Wirkung”.
